From patent US20070282004A1, “Use of a Cyclopentenone Prostaglandin for Delaying for the Onset and/or Preventing the Continuation of Labour” (Imperial College Innovations Limited, priority 2003, published 2007)
Residues, ends and D or L forms follow the SMILES beside them. *: point of attachment. Cbz = O=C(OCc1ccccc1)*

Experiments:
PPAR-γ = target: T1, PPAR-γ (Homo sapiens, UniProt P37231); settings: as stated from the literature; cited from earlier work
T1 sequence (P37231 1-505): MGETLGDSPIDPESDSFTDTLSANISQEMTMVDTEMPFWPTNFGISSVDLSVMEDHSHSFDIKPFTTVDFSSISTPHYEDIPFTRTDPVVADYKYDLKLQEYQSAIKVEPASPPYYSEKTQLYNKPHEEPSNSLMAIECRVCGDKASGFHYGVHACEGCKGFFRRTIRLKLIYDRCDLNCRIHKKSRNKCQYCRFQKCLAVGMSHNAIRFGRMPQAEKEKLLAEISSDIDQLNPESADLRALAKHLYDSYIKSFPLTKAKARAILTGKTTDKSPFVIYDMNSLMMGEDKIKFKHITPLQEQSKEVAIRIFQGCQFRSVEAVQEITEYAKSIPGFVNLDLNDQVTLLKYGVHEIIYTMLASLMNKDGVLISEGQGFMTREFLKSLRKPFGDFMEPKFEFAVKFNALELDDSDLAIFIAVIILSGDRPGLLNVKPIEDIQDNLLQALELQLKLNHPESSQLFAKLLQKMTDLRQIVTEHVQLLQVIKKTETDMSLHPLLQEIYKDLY

NF-κB [1] = assay: Western immunoblot of p65, p50, IκB in myometrial cell extracts; format: cell-based, human; settings: myometrial cells, IL-1β 15 min
Method: (§1) Western immunoblots of nuclear or cytosolic protein extracts from (A) myometrial cells, (B) L− amnion cells, and (C) L+ amnion cells treated with 15dPGJ2 or vehicle for 2 h±IL-1β stimulation (15 min). Blots probed with antibodies against p65, p50 or IκBα.
Western immunoblots of nuclear or cytosolic protein extracts from myometrial cells treated with PGA1 or vehicle for 2 h followed by IL-1β stimulation (15 min). Blots probed with antibodies against p65 or IκBa.
Western immunoblots of cytosolic extracts from myometrial cells (A) treated with 15dPGJ2 for 2h±IL1b for 15 min; probed for IKK, and (B) treated with […] 15dPGJ2, […] MG132 or vehicle for 2 h, ±IL-1β for 15 min; probed for IκBα.
(A) NF-κB-DNA binding was measured by EMSA in nuclear protein extracts from myometrial cells pre-treated with vehicle, 15d-PGJ2 or PGA1 for 2 h, followed by stimulation with IL-1β (1 ng/ml) for 15 min. Antibodies against p50 and p65 were used for supershift analysis. (B) Myometrial cells were transiently transfected with a NF-κB-LUC reporter and a β-gal reporter plasmid, pre-treated with vehicle or PGA1 for 2 h, and stimulated with IL-1β (1 ng/ml) for 6 h. Luciferase activity was normalized for β-gal reporter readout. Values are presented as the mean±SEM obtained for each treatment done in triplicate. Western blot analysis of nuclear p65 and p50 expression in myometrial cells treated with (C) PGA1 or (D) 15d-PGJ2 for 2 h, followed by stimulation with IL-1β (1 ng/ml) for 15 min. (E) Western blot analysis of whole cell lysates from myometrial cells treated with 15d-PGJ2 or 9,10-dihydro-15d-PGJ2 for 2 h, followed by stimulation with IL-1β (1 ng/ml) for 15 min. Membranes were probed with antibodies against p65 and Ser 536-phosphorylated p65.
(§2) Myometrial tissue was collected at term from the upper margin of uterine incision at the time of lower segment caesarean section either prior to the onset of labour (L−) or […] (L+). L+ samples were collected by Dr Mark Johnson and Dr S Soorrana at Chelsea & Westminster Hospital. Myometrial tissue was dissected, rinsed in PBS, and digested in serum-free DMEM containing 15 mg/ml collagenase 1A (Sigma), 15 mg/ml collagenase X, and 50 mg/ml bovine serum albumin for 45 min at 37° C. The cell suspension was filtered through a cell strainer, centrifuged at 400 g for 5 min, and the pellet re-suspended and plated out in DMEM, 10% FCS (Helena BioScience), 1% L-glutainine, 1% penicillin-streptomycin. Cells were used between passage numbers 1-4.
(§3) Nuclear and cytosolic protein extracts were obtained from cultured amnion cells as described by Schreiber et al (1989). For nuclear/cytosolic fractionation, confluent cell monolayers were scraped and lysed using a buffer containing 10 mM HEPES, 10 mM KCl, 0.1 mM EDTA, 0.1 mM EGTA, 2 mM DTT, 1% (v/v) NP-40 and complete protease inhibitor tablets (CPIs, Roche), diluted to manufacturer's instructions. Cell lysates were incubated on ice for 10 min and NP-40 added to a final concentration of 1% (v/v). Lysates were vortexed for 10 secs and centrifuged for 30 secs at 4° C., 12000 g. The supernatants were retained as the cytosolic protein extracts. The pellets were resuspended in buffer containing 10 mM HEPES, 10 mM KCl, 0.1 mM EDTA, 0.1 mM EGTA, 2 mM DTT, 400 mM NaCl, 1% NP-40 (v/v) and CPIs. Samples were shaken vigorously for 15 min in an ice bath. The nuclear protein extracts were obtained in the supernatant following a 5 min centrifugation at 4° C., 12000 g.
Protein samples (20-70 μg) were mixed with Laemmli sample buffer (1:1) containing β-mercaptoethanol (5%), and boiled for 5 min. Proteins were then separated by SDS-PAGE (12-14% gels) and transferred onto PVDF membrane (Amersham Pharmacia Biotech). The membranes were blocked overnight in 5% non-fat milk prepared in PBS-T buffer, at 4° C. The blots were incubated with the primary antibody in 1% non-fat milk in PBS-T buffer for 1 h, and washed three times (10 min each) in PBS-T with vigorous shaking. […]

NF-κB [2] = target: T2, NF-κB (Homo sapiens, UniProt P19838+Q04206); assay: EMSA of NF-κB DNA binding in nuclear extracts of treated myometrial cells; format: cell-based; settings: myometrial cells; for Stimulation of NF-κB activity / induction of NFκB DNA binding by the compound alone: no cytokine; for IL-1β-induced NF-κB DNA binding (EMSA): then IL-1β 15 min
T2 construct: nuclear protein extracts from myometrial cells; endogenous in cells; host or cells: primary human myometrial cells (term, passage 1-4)
T2 sequence (Q04206 whole entry): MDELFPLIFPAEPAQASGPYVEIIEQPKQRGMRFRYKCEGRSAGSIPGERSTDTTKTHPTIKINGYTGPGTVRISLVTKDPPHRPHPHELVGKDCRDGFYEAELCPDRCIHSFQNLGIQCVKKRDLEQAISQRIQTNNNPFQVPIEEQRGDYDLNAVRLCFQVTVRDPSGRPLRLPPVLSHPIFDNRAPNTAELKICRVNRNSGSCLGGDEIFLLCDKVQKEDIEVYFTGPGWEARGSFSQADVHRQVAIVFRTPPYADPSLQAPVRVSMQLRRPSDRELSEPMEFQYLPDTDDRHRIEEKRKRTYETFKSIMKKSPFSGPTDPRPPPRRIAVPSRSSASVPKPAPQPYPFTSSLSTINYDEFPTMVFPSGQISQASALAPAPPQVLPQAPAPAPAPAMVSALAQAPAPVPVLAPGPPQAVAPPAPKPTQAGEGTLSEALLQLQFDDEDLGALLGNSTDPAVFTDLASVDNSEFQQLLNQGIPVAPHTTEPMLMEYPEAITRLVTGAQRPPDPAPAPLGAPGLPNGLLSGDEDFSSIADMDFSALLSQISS
T2 sequence (P19838 1-433 limits assumed): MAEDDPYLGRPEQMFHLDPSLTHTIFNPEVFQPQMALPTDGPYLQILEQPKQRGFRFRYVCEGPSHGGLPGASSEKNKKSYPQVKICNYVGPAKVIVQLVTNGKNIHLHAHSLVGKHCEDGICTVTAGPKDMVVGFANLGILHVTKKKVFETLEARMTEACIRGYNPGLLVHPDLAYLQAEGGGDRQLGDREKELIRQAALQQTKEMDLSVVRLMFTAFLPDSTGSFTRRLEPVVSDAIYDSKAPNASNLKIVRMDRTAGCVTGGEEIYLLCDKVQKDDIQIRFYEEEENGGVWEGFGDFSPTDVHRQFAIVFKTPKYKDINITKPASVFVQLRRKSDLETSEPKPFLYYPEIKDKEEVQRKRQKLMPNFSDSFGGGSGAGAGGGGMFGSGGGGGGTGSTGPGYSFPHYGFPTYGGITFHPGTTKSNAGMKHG
Method: as §2, §3
(§4) Sense and antisense strands (175 nmole/ml each) were incubated in annealing buffer (10 mM Tris-HCl pH7.5, 100 mM NaCl, 1 mM EDTA) for 10 min at 65° C., and allowed to cool at room temperature for 2 h. 3.5 pmole double-stranded oligonucleotides were end-labelled with 0.37 MBq ^32P(γATP) by incubating for 30 min at 37° C. with T4 polynucleotide kinase. Labelled oligonucleotides were recovered by centrifugation at 3000 rpm for 2 min through MicroSpin G-25 or G-50 sephadex columns (Amersham Biosciences).
(§5) 3-5 μg protein extracts were incubated on ice for 1 h with non-radiolabelled non-specific oligonucleotide (poly(dI-dC) or Oct-1) in a binding buffer (20% (v/V) glycerol, 5 mM MgCl2, 2 mM EDTA, 50 mM Tris-HCl pH7.5, 250 mM NaCl, 2 mM DTT), followed by a 45 min incubation with 0.035 pmole ^32P(γ(ATP)-end labelled oligonucleotide probes:
(§6) Oct-1 or SP-1 consensus sequences were used as a controls for a NF-κB-specific effect. The resulting protein/DNA complexes were separated in a 4% acrylamide gel, the gel dried under vacuum at 80° C. and exposed to X-ray film. For supershift analysis, samples were incubated with 2 μg antibodies for 30 min on ice prior to incubation with oligonucleotides. Non-radio-labelled oligonucleotides were used at 100-fold molar excess for specific and non-specific competition for DNA binding. Reagents for EMSA were obtained from Promega Life Sciences, Delta House, Chilworth Research Centre, Southampton SO16 7NS, United Kingdom.

NF-κB [3] = assay: Western immunoblot of p65, p50, IκB in amnion cell extracts; format: cell-based, human; settings: L−, L+ amnion cells, treated 2 h, IL-1β 15 min
Method: as §1
(§7) Placentae were obtained from patients at term either at elective Caesarean section prior to labour (L−) or following spontaneous labour onset and vaginal delivery (L+). Amnion cells were prepared as described in Bennett et al., (1989). Briefly, the amnion was separated from the placenta, washed 3× in PBS, cut into strips, and incubated in 0.5 mM EDTA in PBS for 15 min. The strips were washed in PBS 2× and digested with 2.5 mg/ml dispase in serum-free DMEM for 35 min at 37° C. The amnion was then shaken vigorously in DMEM, 10% FCS to dissociate the cells, the remaining strips discarded, and the cell suspension pelleted at 175 g for 10 min and cultured in DMEM, 10% FCS (Sigma), 1% L-glutamine, 1% penicillin-streptomycin.
as §3
Protein samples (20-70 μg) were mixed with Laemmli sample buffer (1:1) containing β-mercaptoethanol (5%), and boiled for 5 min. Proteins were then separated by SDS-PAGE (12-14% gels) and transferred onto PVDF membrane (Amersham Pharmacia Biotech). The membranes were blocked overnight in 5% non-fat milk prepared in PBS-T buffer, at 4° C. The blots were incubated with the primary antibody in 1% non-fat milk in PBS-T buffer for 1 h, and washed three times (10 min each) in PBS-T with vigorous shaking. The blots were then incubated with HRP-conjugated secondary antibody (diluted 1:2000 in 1% non-fat milk in PBS-T buffer) for 1 h and washed three times (10 min each) in PBS-T. Signal detection was achieved using enhanced chemi-luminescence (ECL plus system, Amersham Pharmacia Biotech) according to manufacturer's instructions.
30-50 μg protein extracts were subjected to SDS-PAGE and Western immuno-blotting. Secondary antibodies were IgG-HRP and ECL Plus detection kit (Amersham Pharmacia Biotech, Amersham Place, Little Chalfont, Bucks, HP7 9NA) was used for visualisation.

NF-κB [4] = target: T2, NF-κB; assay: EMSA of NF-κB DNA binding in nuclear extracts of treated amnion cells; format: cell-based
Method: as §7, §3, §4, §5, §6

NF-κB [5] = assay: NF-κB-dependent luciferase reporter (κB.BG.Luc) in myometrial cells; format: cell-based, human; settings: treated 2 h, IL-1β 1 ng/ml 6 h
Method: Myometrial cells were transiently transfected with the NFκB-dependent reporter construct κB.BG.Luc, treated with 15dPGJ2 or vehicle for 2 h, ±IL-1β (1 ng/ml) for 6 h. […] Values are normalised for b-gal reporter activity. (NS=nonstimulated).
Myometrial cells were transfected with […] κB.BG.Luc reporter and 200 ng PPAR-γ expression vector and treated with 15d-PGJ2 for 2 h followed by IL-1β (1 ng/ml) for 6 h. Values are normalised for β-galactosidase reporter activity. (NS=nonstimulated).
as §2
pGL3.6κB.BG.luc: a NF-κB-dependent reporter construct with 6 copies of the NF-κB binding site.
Cells were co-transfected with the renilla vector pRL-CMV or β-galactosidase vector pCH110 as internal controls for transfection efficiencies.

[6] = system: contractions of pre-term labour; settings: people; cited from earlier work
[7] = system: ductus arteriosus, fetal urine output; settings: in vivo; cited from earlier work
NF-κB [8] = assay: NF-κB-dependent luciferase reporter (κB.BG.Luc) in myometrial cells; format: cell-based, human; settings: 200 ng PPAR-γ expression vector, 10 mM troglitazone 7 h, IL-1β 17 h

CCCCCC=CC=C1CCC(=O)C1CC=CCCCC(=O)O (centres unmarked) [9,10-dihydro-15d-PGJ2, 9,10-di-hydro-15-deoxy-Δ^12,14-Prostaglandin J2, reference compound]
PPAR agonist / ligand activity (PPAR-γ): retains PPARγ agonist activity | Reproduction of the effects of 15d-PGJ2 on NF-κB (incl. Ser 536-phosphorylated p65) (NF-κB [1]; 2 h, similar in amnion epithelial cells): could not reproduce the effects

CCCCC(C)(C)[C@H](O)/C=C/[C@H]1[C@H](O)CC(=O)[C@@H]1C/C=C\CCCC(=O)O [16,16-Dimethyl-PGE2, reference compound]
Synergy with IL-1β or TNFα on NF-κB activity (NF-κB [2]): nor did it synergise | Stimulation of NF-κB activity / induction of NFκB DNA binding by the compound alone (NF-κB [2]): neither did it stimulate | IL-1β-induced NF-κB DNA binding (EMSA) (NF-κB [2]; treated 2 h): did not inhibit | IL-1β-induced p65 nuclear translocation (NF-κB [3]): did not inhibit | IL-1β-induced NF-κB DNA binding (EMSA) (NF-κB [4]; L− and L+ amnion cells, treated 2 h, then IL-1β 15 min): did not inhibit | IL-1β-induced p65 nuclear translocation (NF-κB [1]; treated 2 h): did not inhibit

CN(CCOc1ccc(C[C@H](Nc2ccccc2C(=O)c2ccccc2)C(=O)O)cc1)c1ccccn1 [GW1929, reference compound]
IL-1β-induced NF-κB DNA binding (EMSA) (NF-κB [2]; treated 2 h): failed to inhibit | IL-1β-induced NF-κB transcriptional activity (κB.BG.Luc reporter) (NF-κB [5]): does not inhibit

COc1ccc2c(c1)c(CC(=O)O)c(C)n2C(=O)c1ccc(Cl)cc1 [Indomethacin]
Tocolytic efficacy [6]: effective in preventing the contractions

CC(C)C[C@@H](C=O)NC(=O)[C@H](CC(C)C)NC(=O)[C@H](CC(C)C)NC(=O)OCc1ccccc1 [MG132, reference compound] (Cbz-Leu-Leu-Leu-aldehyde)
Accumulation of phosphorylated IκBα (NF-κB [1]; 2 h): resulted in the accumulation

CCCCC[C@H](O)/C=C/[C@H]1[C@H](O)CC(=O)[C@@H]1C/C=C\CCCC(=O)O [PGE2, prostaglandin E2, reference compound]
Stimulation of NF-κB activity / induction of NFκB DNA binding by the compound alone (NF-κB [2]): does not induce | TNFα- and IL-1β-induced NFκB activation (EMSA, nuclear p65) (NF-κB [2]; treated 2 h, TNFα or IL-1β 15 min): does not inhibit | PPAR agonist / ligand activity (PPAR-γ): does not activate PPAR-γ | Induction of NFκB DNA binding by the compound alone (NF-κB [4]; L− amnion cells, no cytokine): does not induce

CC1=C(CC(=O)O)c2cc(F)ccc2/C1=C\c1ccc([S+](C)[O-])cc1 (centres unmarked) [Sulindac]
Effect on ductal patency [7]: minimal effect | Fetal urine output [7]: smaller reduction | Tocolytic efficacy [6]: equally good

Cc1c(C)c2c(c(C)c1O)CCC(C)(COc1ccc(CC3SC(=O)NC3=O)cc1)O2 (centres unmarked) [troglitazone]
NF-κB-dependent reporter in PPARγ-transfected cells (NF-κB [8]): does not inhibit
